Literature values in patent publication US20050256097A1, “Pharmaceutical solution formulations containing 17-AAG” (Kosan Biosciences, Inc., priority 2004, published 2005).

SMILES	water solubility (in words)	water solubility (neutral pH)
C=CCNC1=C2C[C@@H](C)C[C@H](OC)[C@H](O)[C@@H](C)/C=C(\C)[C@H](OC(N)=O)[C@@H](OC)/C=C\C=C(/C)C(=O)NC(=CC1=O)C2=O [Sample 17-AAG, 17-allylamino-17-demethoxygeldanamycin]	very poor water solubility	about 0.1 mg/mL
COC1/C=C\C=C(/C)C(=O)NC2=CC(=O)C(NCCN(C)C)=C(C[C@@H](C)C[C@H](OC)[C@H](O)[C@@H](C)/C=C(\C)[C@@H]1OC(N)=O)C2=O (stereo partly shown) [Sample 17-DMAG, 17-(2-dimethylaminoethyl)amino-17-demethoxygeldanamycin]	more soluble	–
COC1=C2C[C@@H](C)C[C@H](OC)[C@H](O)[C@@H](C)/C=C(\C)[C@H](OC(N)=O)[C@@H](OC)/C=C\C=C(/C)C(=O)NC(=CC1=O)C2=O [geldanamycin, Geldanamycin]	very poor water solubility	–
